According to patent US9447090B2, “Imidazopyridine compounds” (Astellas Pharma Inc., priority 2011, dated 2016):

How the values were obtained:
[1] = tested on: Wistar male rats; test: Measurement of antihypertensive effect in vivo: blood pressure via carotid cannula after oral dosing; conditions: rat
Description: Wistar male rats were used. Three days prior to administration of a drug, a cannula (PE-50, Becton, Dickinson and Company, Japan) filled with heparin physiological saline (200 U/mL, Ajinomoto Pharmaceuticals Co., Ltd.) was inserted and placed in the common carotid artery under anesthesia with intraperitoneal administration of 60 mg/kg of pentobarbital. The other end of the cannula was exposed to the back neck through the subcutaneous. After the recovery period, the placed cannula was connected to a pressure transducer (Life Kit DTS DX-100, Nihon Kohden Corporation) to record the blood pressure waveform through a Polygraph (AP-641G, Nihon Kohden Co., Ltd.) and PowerLab (ML870 PowerLab8/30 (AD Instruments Japan)). The heart rate was calculated using a heart rate measuring unit (AT-601G, Nihon Kohden Co., Ltd.). After stabilization of the blood pressure, the drug was orally administered to measure the blood pressure and the heart rates. The test compounds were administered by appropriately adding N,N-dimethylformamide, Polyethylene Glycol 400, TWEEN 80, a 0.5% aqueous methylcellulose solution, and a 0.5 M aqueous sodium bicarbonate solution, and 0.1 M hydrochloric acid therein according to the compounds and dissolving it.
The results from the measurement according to Test Example 3 are shown below according to the following criteria with a maximum value of the mean blood pressure reduction. A: <20 mmHg, B: 20 to 40 mmHg, and C: >40 mmHg

[2] = target: human purified sGC (Homo sapiens (Human), UniProt Q02108+Q02153); test: Measurement of sGC activation (enzyme): cGMP produced by human purified sGC, HTRF; format: biochemical; conditions: for EC50: concentration giving 50% of maximum activation, maximum activation of Example 102 taken as 100%
human purified sGC, sequence (Q02153 whole entry): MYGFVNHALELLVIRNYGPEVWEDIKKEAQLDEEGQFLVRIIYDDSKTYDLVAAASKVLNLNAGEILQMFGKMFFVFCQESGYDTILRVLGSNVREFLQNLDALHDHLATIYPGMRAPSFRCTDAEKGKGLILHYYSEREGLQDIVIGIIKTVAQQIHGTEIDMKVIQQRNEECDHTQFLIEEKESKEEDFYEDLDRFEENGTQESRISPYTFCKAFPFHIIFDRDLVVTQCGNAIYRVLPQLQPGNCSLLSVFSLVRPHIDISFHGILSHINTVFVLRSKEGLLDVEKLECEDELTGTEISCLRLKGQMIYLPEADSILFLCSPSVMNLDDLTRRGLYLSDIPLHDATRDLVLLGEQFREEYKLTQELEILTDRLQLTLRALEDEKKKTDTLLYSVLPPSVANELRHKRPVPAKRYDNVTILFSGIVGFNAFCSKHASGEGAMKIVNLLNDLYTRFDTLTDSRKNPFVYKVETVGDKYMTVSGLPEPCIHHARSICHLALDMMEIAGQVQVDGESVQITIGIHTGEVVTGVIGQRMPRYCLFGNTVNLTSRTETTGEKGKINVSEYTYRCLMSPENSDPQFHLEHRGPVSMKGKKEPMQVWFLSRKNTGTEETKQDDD
human purified sGC, sequence (Q02108 whole entry): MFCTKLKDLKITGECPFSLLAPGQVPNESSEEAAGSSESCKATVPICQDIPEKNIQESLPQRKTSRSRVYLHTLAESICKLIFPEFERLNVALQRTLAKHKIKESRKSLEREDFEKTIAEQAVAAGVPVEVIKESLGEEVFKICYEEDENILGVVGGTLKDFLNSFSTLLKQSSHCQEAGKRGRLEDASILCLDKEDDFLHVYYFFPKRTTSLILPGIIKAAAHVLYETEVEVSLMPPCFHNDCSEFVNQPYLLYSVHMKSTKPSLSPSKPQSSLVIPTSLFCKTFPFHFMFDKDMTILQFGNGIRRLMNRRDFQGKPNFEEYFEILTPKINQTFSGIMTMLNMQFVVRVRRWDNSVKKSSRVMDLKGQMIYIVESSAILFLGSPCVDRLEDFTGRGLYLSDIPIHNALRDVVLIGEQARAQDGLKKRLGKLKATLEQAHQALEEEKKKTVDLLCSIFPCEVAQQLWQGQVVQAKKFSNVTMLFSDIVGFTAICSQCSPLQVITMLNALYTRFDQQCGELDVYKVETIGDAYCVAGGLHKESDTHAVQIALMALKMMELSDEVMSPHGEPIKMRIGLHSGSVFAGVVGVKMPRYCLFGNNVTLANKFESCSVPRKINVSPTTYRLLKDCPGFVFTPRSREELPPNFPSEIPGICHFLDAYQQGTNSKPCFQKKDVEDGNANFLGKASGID
Description: The activity of sGC was evaluated by measuring the amount of a cyclic guanosine monophosphate (cGMP) which is produced by human purified sGC.
A test compound was dissolved in DMSO and diluted 20-fold with ultrapure water. 2 μL of the diluted test compound solution (maximum concentration 100 μM), 2 μL of a substrate solution [0.5 μM TEBA, 0.03 μM dithiothreitol, 0.01 μM GTP, 0.04 μM MgCl2, and 0.03 μM sodium nitroprusside (SNP)], and 6 μL of a human enzyme suspension were added to 384-well plates (manufactured by Greiner Bio-One), and incubated at room temperature for one hour. The quantitative determination of cGMP is using HTRF which based on the competition between sample cGMP and fluorescent dye labeled cGMP for binding to a cGMP-specific antibody.
The test results of some Example compounds that are the compounds of the formula (I) of the present invention are shown below. The sGC activation of the test compound was calculated by taking the activation when the compound was not added as 100%. As compared with the activation when the compound was not added, it was recognized that a compound having a sGC activation of more than 300% has sGC activation. In addition, in Tables, Ex represents Example number in which the test compound is described and the sGC activation [%] represents sGC activation (%).
Furthermore, the EC50 [μM] value was calculated as another parameter for expressing sGC activation. This parameter indicates the concentration of the evaluated compound giving 50% of a maximum activation, which is calculated based on the maximum activation that compound of Example 102 is added, which is taken as 100%. In this connection, when a known sGC activator, YC-1 (Lificiguat, [5-(1-benzyl-1H-indazol-3-yl)-2-furyl]methanol), was evaluated according to the above Test Example 1, its maximum activation was 52% of the maximum activation for compound of Example 102. Further, “−” means no evaluation.

[3] = tested on: Wistar male rats; test: Blood flow increasing in vivo: hind limb blood flow in anesthetized rats, laser blood flow imaging; conditions: rat hind limb, oral, dose of 10 mg/kg, 2 hours after administration
Description: The hind limb blood flow in rats anesthetized with pentobarbital was measured by the following test method. Wistar male rats were used. […] Thus prepared administration liquid was orally administered, and 2 hours later, the hind limb blood flow was measured using a laser blood flow imaging device (PIM II Integral) under anesthesia with intraperitoneal administration of 60 mg/kg of pentobarbital.

Row | SMILES | Blood pressure reduction (maximum value of the mean blood pressure reduction) ([1]; 10 mg/kg po) | EC50 [2] [µM] | Blood pressure reduction (maximum value of the mean blood pressure reduction) ([1]; 30 mg/kg po) | sGC activation [%] ([2]; activation when the compound was not added taken as 100%, maximum concentration 100 μM, with SNP) | blood flow increasing effect [3]
1 | Cc1nc2c(OCc3c(F)cccc3F)cccn2c1C(=O)N[C@@H]1c2ccccc2C[C@@H]1O.Cl [Ex 431] | B (B: 20 to 40 mmHg) |  |  |  | 
2 | Cc1ccc(C(CO)(CO)NC(=O)c2c(C)nc3c(OCc4c(F)cccc4F)cccn23)cc1 [Ex 827] | B (B: 20 to 40 mmHg) |  |  |  | 
3 | Cc1nc2c(OCc3c(F)cccc3F)cccn2c1C(=O)N[C@@H]1c2ccccc2C[C@H]1C(=O)O [Ex 434] |  | 7.3 | C (C: >40 mmHg) |  | 
4 | Cc1cccc2c1C[C@@H](C(=O)O)[C@@H]2NC(=O)c1c(C)nc2c(OCC3CCCCC3)cccn12 [Ex 693] |  | 17 |  | >1000 | exhibited a blood flow increasing effect
